# Assay results published in US20260184687A1, “DIHYDROINDENE DERIVATIVES AS MALT1 INHIBITORS” (C4X Discovery Limited, priority 2022, published 2026).
# Biological target: T1, FL hMALT1 enzyme (Homo sapiens, UniProt Q9UDY8)
# T1 sequence (Q9UDY8 1-824): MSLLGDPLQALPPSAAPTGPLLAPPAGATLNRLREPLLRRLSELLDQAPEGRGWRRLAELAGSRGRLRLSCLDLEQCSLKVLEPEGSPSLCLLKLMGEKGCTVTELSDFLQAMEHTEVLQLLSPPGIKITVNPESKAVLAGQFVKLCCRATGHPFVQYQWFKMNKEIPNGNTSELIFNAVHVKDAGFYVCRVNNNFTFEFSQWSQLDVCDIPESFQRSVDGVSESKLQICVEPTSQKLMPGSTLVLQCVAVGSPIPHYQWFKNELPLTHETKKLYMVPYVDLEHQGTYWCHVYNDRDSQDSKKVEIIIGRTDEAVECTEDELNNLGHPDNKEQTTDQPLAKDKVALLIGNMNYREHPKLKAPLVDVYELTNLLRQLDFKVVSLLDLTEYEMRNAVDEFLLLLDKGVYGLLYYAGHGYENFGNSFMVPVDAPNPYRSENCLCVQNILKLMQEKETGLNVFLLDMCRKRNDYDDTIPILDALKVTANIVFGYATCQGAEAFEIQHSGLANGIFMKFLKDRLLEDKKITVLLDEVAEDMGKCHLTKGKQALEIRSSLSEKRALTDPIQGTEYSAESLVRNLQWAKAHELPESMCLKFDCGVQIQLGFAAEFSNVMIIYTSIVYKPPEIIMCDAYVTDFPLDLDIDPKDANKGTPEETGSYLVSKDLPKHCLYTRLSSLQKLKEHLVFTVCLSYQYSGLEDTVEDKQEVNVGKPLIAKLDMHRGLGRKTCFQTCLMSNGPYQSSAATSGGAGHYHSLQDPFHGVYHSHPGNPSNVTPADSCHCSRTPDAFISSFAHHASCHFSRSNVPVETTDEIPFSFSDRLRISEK
# Assay: biochemical
# 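Further: Cell-free protease assay: enzyme preincubated with compound 30 min at room temperature, then cleavage of fluorogenic Ac-LVSR-AMC substrate (100 µM) tracked by fluorescence (ex 360/em 460 nm).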
row,IC50 [nM],Compound
1,1600,"CN(C(=O)[C@H]1C[C@@H](O)C1)[C@@H](c1ccc(NC2Cc3ccc(Cl)c(F)c3C2)cn1)C(F)(F)F (single isomer, unassigned) [Example 383]"
2,70,"CNC(=O)[C@H]1C[C@H](C(=O)N(C)[C@@H](c2ccc(NC3Cc4ccc(Cl)c(Cl)c4C3)cn2)C(F)(F)F)C1 (stereo partly drawn) [Example 363, (1,3-trans)-N^1-((1S)-1-(5-((4,5-Dichloro-2,3-dihydro-1H-inden-2-yl)amino)pyridin-2-yl)-2,2,2-trifluoroethyl)-N^1,N^3-dimethylcyclobutane-1,3-dicarboxamide]"
3,150,"CN(C(=O)C1CS(=O)(=O)C1)[C@@H](c1ccc(NC2Cc3ccc(Cl)c(Cl)c3C2)cn1)C(F)(F)F (stereo partly drawn) [Example 355, N-((1S)-1-(5-((4,5-Dichloro-2,3-dihydro-1H-inden-2-yl)amino)pyridin-2-yl)-2,2,2-trifluoroethyl)-N-methylthietane-3-carboxamide 1,1-dioxide]"
4,3640,"Cc1nnc(N2CC(C(=O)N(C)[C@@H](c3ccc(NC4Cc5ccc(Cl)c(F)c5C4)cn3)C(F)(F)F)C2)o1 (single isomer, unassigned) [Example 365]"
5,1370,"CN(C(=O)C1CN(C(=O)C2COC2)C1)[C@@H](c1ccc(NC2Cc3ccc(Cl)c(F)c3C2)cn1)C(F)(F)F (single isomer, unassigned) [Example 370]"
6,780,"CN(C(=O)C1CCS(=O)(=O)CC1)[C@@H](c1ccc(NC2Cc3ccc(Cl)c(F)c3C2)cn1)C(F)(F)F (single isomer, unassigned) [Example 276]"
7,960,"CN(C(=O)[C@H]1CNC(=O)C1)[C@@H](c1ccc(NC2Cc3ccc(Cl)c(F)c3C2)nc1)C(F)(F)F (single isomer, unassigned) [Example 338]"
8,300,"CN(C(=O)C1CCS(=O)(=O)CC1)[C@@H](c1ccc(NC2Cc3ccc(Cl)c(C4CC4)c3C2)cn1)C(F)(F)F (single isomer, unassigned) [Example 305]"
9,270,"CNC(=O)C1(C(=O)N(C)[C@@H](c2ccc(NC3Cc4ccc(Cl)c(F)c4C3)cn2)C(F)(F)F)CC1 (stereo partly drawn) [Example 368, N-((1S)-1-(5-((5-Chloro-4-fluoro-2,3-dihydro-1H-inden-2-yl)amino)pyridin-2-yl)-2,2,2-trifluoroethyl)-N,N′-dimethylcyclopropane-1,1-dicarboxamide]"
10,350,"CN(C(=O)C1CCS(=O)(=O)CC1)[C@@H](c1ccc(NC2Cc3ccc(Cl)c(Cl)c3C2)cn1)C(F)(F)F (single isomer, unassigned) [Example 278]"
11,1320,"CN(C(=O)C1CC2(CCC(=O)N2)C1)[C@@H](c1ccc(NC2Cc3ccc(Cl)c(Cl)c3C2)cn1)C(F)(F)F (single isomer, unassigned) [Example 342]"
12,130,"CN(C(=O)C1CN(C(=O)C2CCO2)C1)[C@@H](c1ccc(NC2Cc3ccc(Cl)c(F)c3C2)cn1)C(F)(F)F (single isomer, unassigned) [Example 385]"
13,490,"Cc1c(Cl)ccc2c1CC(Nc1ccc([C@H](N(C)C(=O)C3CCS(=O)(=O)CC3)C(F)(F)F)nc1)C2 (single isomer, unassigned) [Example 373]"
14,660,"CN(C(=O)[C@@H]1CNC(=O)C1)[C@@H](c1ccc(NC2Cc3ccc(Cl)c(Cl)c3C2)cn1)C(F)(F)F (single isomer, unassigned) [Example 318]"
15,1100,"CN(C(=O)[C@@H]1CNC(=O)C1)[C@@H](c1ccc(N[C@H]2Cc3ccc(Cl)c(F)c3C2)cn1)C(F)(F)F (single isomer, unassigned) [Example 316]"

# The next lines start with the compound.
row,Compound,IC50 [nM]
1,"CN(C(=O)[C@@H]1CC[C@H](NC(=O)C(F)(F)F)C1)[C@@H](c1ccc(N[C@H]2Cc3ccccc3C2(C)C)cn1)C(F)(F)F [Example 184, (1R,3S)—N—((S)-1-(5-(((S)-1,1-Dimethyl-2,3-dihydro-1H-inden-2-yl)amino)pyridin-2-yl)-2,2,2-trifluoroethyl)-N-methyl-3-(2,2,2-trifluoroacetamido)cyclopentane-1-carboxamide]",150
2,"CN(C(=O)C1CCS(=O)(=O)CC1)[C@@H](c1ccc(NC2Cc3ccc(Cl)c(Cl)c3C2)nc1)C(F)(F)F (single isomer, unassigned) [Example 344]",310
3,"CN(C(=O)C1CN2CCC1CC2)[C@@H](c1ccc(NC2Cc3ccccc3C2(C)C)nc1)C(F)(F)F (single isomer, unassigned) [Example 121]",510
4,"CN(C(=O)N1CCS(=O)(=O)CC1)[C@@H](c1ccc(NC2Cc3ccccc3C2(C)C)cn1)C(F)(F)F (single isomer, unassigned) [Example 143]",680
5,"CN(C(=O)C1CCS(=O)(=O)CC1)[C@@H](c1ccc(NC2Cc3ccc(C(F)(F)F)cc3C2)cn1)C(F)(F)F (single isomer, unassigned) [Example 255]",110
6,"CN(C(=O)[C@H]1C[C@@]2(COC(=O)N2)C1)[C@@H](c1ccc(NC2Cc3ccccc3C2(C)C)cn1)C(F)(F)F (single isomer, unassigned) [Example 207]",120
7,"CN(C(=O)CN1CC(=O)NC1=O)[C@@H](c1ccc(NC2Cc3ccccc3C2(C)C)cn1)C(F)(F)F (single isomer, unassigned) [Example 212]",130
8,"CN(C(=O)C1CC2(CCC(=O)N2)C1)[C@@H](c1ccc(NC2Cc3ccccc3C2(C)C)cn1)C(F)(F)F (single isomer, unassigned) [Example 229]",140
9,"CN(C(=O)[C@H]1C[C@]2(CCN2C)C1)[C@@H](c1ccc(NC2Cc3ccccc3C2(C)C)cn1)C(F)(F)F (single isomer, unassigned) [Example 158]",440
10,"CNC(=O)N1CCC12CC(C(=O)N(C)[C@@H](c1ccc(NC3Cc4ccccc4C3(C)C)cn1)C(F)(F)F)C2 (single isomer, unassigned) [Example 239]",150
11,"CNC(=O)N1CCC12CC(C(=O)N(C)[C@@H](c1ccc(NC3Cc4ccccc4C3(C)C)cn1)C(F)(F)F)C2 (single isomer, unassigned) [Example 238]",470
12,"CNC(=O)C12C3C4C1C1C2C3C41C(=O)N(C)[C@@H](c1ccc(NC2Cc3ccc(Cl)cc3C2)cn1)C(F)(F)F (stereo partly drawn) [Example 292, N^1-((1S)-1-(5-((5-Chloro-2,3-dihydro-1H-inden-2-yl)amino)pyridin-2-yl)-2,2,2-trifluoroethyl)-N^1,N^4-dimethylcubane-1,4-dicarboxamide]",840
13,"CC(=O)N1CCC12CC(C(=O)N(C)[C@@H](c1ccc(NC3Cc4ccccc4C3(C)C)cn1)C(F)(F)F)C2 (single isomer, unassigned) [Example 236]",210
14,"CN(C(=O)C1COCC(=O)N1)[C@@H](c1ccc(NC2Cc3ccccc3C2(C)C)cn1)C(F)(F)F (single isomer, unassigned) [Example 162]",110
15,"CCc1cccc2c1CC(Nc1ccc([C@H](N(C)C(=O)C3CCS(=O)(=O)CC3)C(F)(F)F)nc1)C2 (single isomer, unassigned) [Example 197]",2600
16,"CN(C(=O)C1CCS(=O)(=O)CC1)[C@@H](c1ccc(NC2Cc3ccc(C(F)(F)F)cc3C2)cn1)C(F)(F)F (single isomer, unassigned) [Example 256]",1100
17,"CN(C(=O)C1CCS(=O)(=O)CC1)[C@@H](c1ccc(NC2Cc3cccc(OC(F)F)c3C2)cn1)C(F)(F)F (stereo partly drawn) [Example 333, N-((1S)-1-(5-((4-(Difluoromethoxy)-2,3-dihydro-1H-inden-2-yl)amino)pyridin-2-yl)-2,2,2-trifluoroethyl)-N-methyltetrahydro-2H-thiopyran-4-carboxamide 1,1-dioxide]",160
18,"CN(C(=O)C1CCS(=O)(=O)CC1)[C@@H](c1ccc(NC2Cc3cc(F)cc(F)c3C2)cn1)C(F)(F)F (single isomer, unassigned) [Example 268]",3400
19,"CN(C(=O)C1CCNCC1)[C@@H](c1ccc(NC2Cc3ccccc3C2(C)C)nc1)C(F)(F)F (single isomer, unassigned) [Example 149]",240
20,"CN(C(=O)C1CCS(=O)(=O)CC1)[C@@H](c1ccc(NC2Cc3ccc(C4CC4)cc3C2)cn1)C(F)(F)F (single isomer, unassigned) [Example 307]",220
21,"CN1CCC(C(=O)N(C)[C@@H](c2ccc(NC3Cc4ccccc4C3(C)C)nc2)C(F)(F)F)CC1 (single isomer, unassigned) [Example 145]",230
22,"CN(C(=O)C1CN2CCC1CC2)[C@@H](c1ccc(NC2Cc3ccccc3C2(C)C)nc1)C(F)(F)F (single isomer, unassigned) [Example 123]",870
23,"CN(C(=O)CC#N)[C@@H](c1ccc(NC2Cc3ccc(Cl)c(Cl)c3C2)cn1)C(F)(F)F (single isomer, unassigned) [Example 349]",1040
24,"CN(C(=O)C1CCS(=O)(=O)CC1)[C@@H](c1ccc(NC2Cc3ccc(F)cc3C2)cn1)C(F)(F)F (single isomer, unassigned) [Example 258]",4500
25,"CN(C(=O)C1CCS(=O)(=O)CC1)[C@@H](c1ccc(NC2Cc3cccc(C#N)c3C2)cn1)C(F)(F)F (single isomer, unassigned) [Example 257]",2000
